In ChEMBL document CHEMBL1914295, “Synthesis and biological evaluation of some novel triazol-3-ones as antimicrobial agents” (2011):

Legend:
Assay type in all cases: functional
Settings in all cases: read-out: IZ
[1] = tested on: Candida albicans; assay: Antifungal activity against Candida albicans at 100 ug/ml after 48 hrs by disc diffusion method
[2] = tested on: Klebsiella pneumoniae; assay: Antibacterial activity against Klebsiella pneumoniae at 200 ug/ml after 24 hrs by disc diffusion method
[3] = tested on: Fusarium solani; assay: Antifungal activity against Fusarium solani at 100 ug/ml after 48 hrs by disc diffusion method
[4] = tested on: Aspergillus niger; assay: Antifungal activity against Aspergillus niger at 200 ug/ml after 48 hrs by disc diffusion method
[5] = tested on: Escherichia coli; assay: Antibacterial activity against Escherichia coli at 200 ug/ml after 24 hrs by disc diffusion method
[6] = tested on: Fusarium solani; assay: Antifungal activity against Fusarium solani at 200 ug/ml after 48 hrs by disc diffusion method
[7] = tested on: Staphylococcus aureus; assay: Antibacterial activity against Staphylococcus aureus at 100 ug/ml after 24 hrs by disc diffusion method
[8] = tested on: Bacillus subtilis; assay: Antibacterial activity against Bacillus subtilis at 200 ug/ml after 24 hrs by disc diffusion method
[9] = tested on: Bacillus subtilis; assay: Antibacterial activity against Bacillus subtilis at 100 ug/ml after 24 hrs by disc diffusion method
[10] = tested on: Candida albicans; assay: Antifungal activity against Candida albicans at 200 ug/ml after 48 hrs by disc diffusion method
[11] = tested on: Escherichia coli; assay: Antibacterial activity against Escherichia coli at 100 ug/ml after 24 hrs by disc diffusion method
[12] = tested on: Aspergillus niger; assay: Antifungal activity against Aspergillus niger at 100 ug/ml after 48 hrs by disc diffusion method
[13] = tested on: Staphylococcus aureus; assay: Antibacterial activity against Staphylococcus aureus at 200 ug/ml after 24 hrs by disc diffusion method
[14] = tested on: Klebsiella pneumoniae; assay: Antibacterial activity against Klebsiella pneumoniae at 100 ug/ml after 24 hrs by disc diffusion method

SMILES | zone of inhibition at 100 µg/mL [1] [mm] | zone of inhibition at 200 µg/mL [2] [mm] | zone of inhibition at 100 µg/mL [3] [mm] | zone of inhibition at 200 µg/mL [4] [mm] | zone of inhibition at 200 µg/mL [5] [mm] | zone of inhibition at 200 µg/mL [6] [mm] | zone of inhibition at 100 µg/mL [7] [mm] | zone of inhibition at 200 µg/mL [8] [mm] | zone of inhibition at 100 µg/mL [9] [mm] | zone of inhibition at 200 µg/mL [10] [mm] | zone of inhibition at 100 µg/mL [11] [mm] | zone of inhibition at 100 µg/mL [12] [mm] | zone of inhibition at 200 µg/mL [13] [mm] | zone of inhibition at 100 µg/mL [14] [mm]
CC(C)Cn1ncn(-c2nc(-c3ccsc3)cs2)c1=O | 17 | 18 | 26 | 27 | 21 | 30 | 16 | 18 | 16 | 21 | 17 | 26 | 20 | 15
COCCCn1ncn(-c2nc(-c3ccsc3)cs2)c1=O | 24 | 28 | 34 | 28 | 28 | 36 | 24 | 26 | 23 | 28 | 24 | 26 | 26 | 25
CC(C)n1ncn(-c2nc(-c3ccsc3)cs2)c1=O | 22 | 29 | 27 | 33 | 24 | 29 | 25 | 23 | 20 | 24 | 22 | 30 | 27 | 26
Cn1ncn(-c2nc(-c3ccsc3)cs2)c1=O | 36 | 28 | 40 | 42 | 25 | 43 | 32 | 36 | 34 | 40 | 23 | 39 | 35 | 26
O=c1[nH]ncn1-c1nc(-c2ccsc2)cs1 | 35 | 26 | 32 | 39 | 26 | 37 | 25 | 29 | 27 | 38 | 24 | 34 | 28 | 22
CCn1ncn(-c2nc3c(s2)C(C)Sc2sccc2-3)c1=O (stereo not given) | 26 | 26 | 28 | 26 | 27 | 31 | 25 | 31 | 28 | 29 | 22 | 23 | 29 | 24
O=C(N[C@H](CO)[C@H](O)c1ccc([N+](=O)[O-])cc1)C(Cl)Cl [CHLORAMPHENICOL] | – | 45 | – | – | 44 | – | 35 | 41 | 38 | – | 40 | – | 39 | 42
CCn1ncn(-c2nc(-c3ccsc3)cs2)c1=O | 23 | 28 | 29 | 24 | 29 | 32 | 24 | 27 | 21 | 29 | 23 | 21 | 32 | 26
N#CCn1ncn(-c2nc(-c3ccsc3)cs2)c1=O | 28 | 21 | 28 | 29 | 29 | 34 | 28 | 26 | 23 | 32 | 26 | 27 | 31 | 16
CC(C)Cn1ncn(-c2nc3c(s2)C(C)Sc2sccc2-3)c1=O (stereo not given) | 17 | 12 | 16 | 18 | 14 | 20 | 12 | 16 | 13 | 21 | 12 | 16 | 15 | 10
CC1Sc2sccc2-c2nc(-n3cn[nH]c3=O)sc21 (stereo not given) | 25 | 20 | 22 | 29 | 20 | 24 | 18 | 23 | 20 | 28 | 15 | 26 | 21 | 17
CC1Sc2sccc2-c2nc(-n3cnn(CC#N)c3=O)sc21 (stereo not given) | 14 | 14 | 15 | 19 | 13 | 18 | 13 | 18 | 15 | 18 | 11 | 16 | 17 | 11
COCCCn1ncn(-c2nc3c(s2)C(C)Sc2sccc2-3)c1=O (stereo not given) | 36 | 24 | 39 | 41 | 25 | 44 | 23 | 33 | 31 | 39 | 22 | 37 | 28 | 21
CC(=O)N1CCN(c2ccc(OCC3COC(Cn4ccnc4)(c4ccc(Cl)cc4Cl)O3)cc2)CC1 (stereo not given) [KETOCONAZOLE] | 36 | – | 38 | 44 | – | 42 | – | – | – | 39 | – | 41 | – | –
CC1Sc2sccc2-c2nc(-n3cnn(C)c3=O)sc21 (stereo not given) | 22 | 19 | 24 | 23 | 21 | 26 | 14 | 19 | 16 | 24 | 18 | 20 | 16 | 16
CC1Sc2sccc2-c2nc(-n3cnn(C(C)C)c3=O)sc21 (stereo not given) | 16 | 16 | 17 | 22 | 18 | 19 | 14 | 15 | 13 | 21 | 15 | 17 | 16 | 14
